Source: PubChem BioAssay (NCI)
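Cells were grown in 96-well plates and exposed to each compound for 48 hours at five concentrations; endpoints were interpolated linearly between bracketing concentrations, or set to the highest concentration if not reached. GI50 marks 50% less growth. At the TGI there is no net growth.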

What was measured:
Assay in all cases: NCI tumour cell line growth inhibition, 48 h
NCI-H522 lung = tested on: NCI-H522 lung
UO-31 renal = tested on: UO-31 renal
BT-549 breast = tested on: BT-549 breast
T-47D breast = tested on: T-47D breast
RXF 393 renal = tested on: RXF 393 renal
UACC-62 melanoma = tested on: UACC-62 melanoma
TK-10 renal = tested on: TK-10 renal
COLO 205 colon = tested on: COLO 205 colon
MDA-MB-231 breast = tested on: MDA-MB-231 breast
HL-60(TB) leukemia = tested on: HL-60(TB) leukemia
OVCAR-4 ovarian = tested on: OVCAR-4 ovarian
SF-539 CNS = tested on: SF-539 CNS
CCRF-CEM leukemia = tested on: CCRF-CEM leukemia
NCI-H460 lung = tested on: NCI-H460 lung
HCT-15 colon = tested on: HCT-15 colon
SF-268 CNS = tested on: SF-268 CNS
RPMI-8226 leukemia = tested on: RPMI-8226 leukemia
MCF7 breast = tested on: MCF7 breast
NCI-H226 lung = tested on: NCI-H226 lung
SK-MEL-5 melanoma = tested on: SK-MEL-5 melanoma
HOP-92 NSCLC = tested on: HOP-92 NSCLC
K-562 leukemia = tested on: K-562 leukemia
CAKI-1 renal = tested on: CAKI-1 renal
SW-620 colon = tested on: SW-620 colon
SNB-75 CNS = tested on: SNB-75 CNS
HOP-62 NSCLC = tested on: HOP-62 NSCLC
786-0 renal = tested on: 786-0 renal
UACC-257 melanoma = tested on: UACC-257 melanoma
MDA-MB-468 breast = tested on: MDA-MB-468 breast
SK-OV-3 ovarian = tested on: SK-OV-3 ovarian
EKVX NSCLC = tested on: EKVX NSCLC
SNB-19 CNS = tested on: SNB-19 CNS
MOLT-4 leukemia = tested on: MOLT-4 leukemia
HCC-2998 colon = tested on: HCC-2998 colon
LOX IMVI melanoma = tested on: LOX IMVI melanoma
MALME-3M melanoma = tested on: MALME-3M melanoma
OVCAR-3 ovarian = tested on: OVCAR-3 ovarian
SK-MEL-28 melanoma = tested on: SK-MEL-28 melanoma
SN12C renal = tested on: SN12C renal
OVCAR-5 ovarian = tested on: OVCAR-5 ovarian
A498 renal = tested on: A498 renal
ACHN renal = tested on: ACHN renal
MDA-MB-435 = tested on: MDA-MB-435
KM12 colon = tested on: KM12 colon
SK-MEL-2 melanoma = tested on: SK-MEL-2 melanoma
NCI/ADR-RES ovarian = tested on: NCI/ADR-RES ovarian
U251 CNS = tested on: U251 CNS
HS 578T breast = tested on: HS 578T breast
PC-3 prostate = tested on: PC-3 prostate
DU-145 prostate = tested on: DU-145 prostate
NCI-H23 lung = tested on: NCI-H23 lung
HT29 colon = tested on: HT29 colon
M14 melanoma = tested on: M14 melanoma
HCT-116 colon = tested on: HCT-116 colon
SR leukemia = tested on: SR leukemia
IGROV1 ovarian = tested on: IGROV1 ovarian
SF-295 CNS = tested on: SF-295 CNS

Work on `COc1cc2c3c(n(CCCN4CCC[C@@H]4CO)c(=O)c2cc1OC)-c1cc2c(cc1C3=O)OCO2` yielded a GI50 (NCI-H522 lung) of 3050 nM, a TGI (NCI-H522 lung) of 20800 nM and a GI50 (UO-31 renal) of 762 nM. It also gave a TGI (UO-31 renal) of 2140 nM, a GI50 (BT-549 breast) of 1370 nM and a TGI (BT-549 breast) of 15500 nM. The GI50 (T-47D breast) was 576 nM, the TGI (T-47D breast) was 19100 nM and the GI50 (RXF 393 renal) was 966 nM. It also gave a TGI (RXF 393 renal) of 2560 nM, a GI50 (UACC-62 melanoma) of 305 nM and a TGI (UACC-62 melanoma) of 9230 nM. It also gave a GI50 (TK-10 renal) of 16200 nM, a TGI (TK-10 renal) of 30600 nM and a GI50 (COLO 205 colon) of 1230 nM. The TGI (COLO 205 colon) was 5270 nM, the GI50 (MDA-MB-231 breast) was 1380 nM and the TGI (MDA-MB-231 breast) was 2750 nM. The GI50 (HL-60(TB) leukemia) was 871 nM, the TGI (HL-60(TB) leukemia) was 3110 nM and the GI50 (OVCAR-4 ovarian) was 1700 nM. It also gave a TGI (OVCAR-4 ovarian) of 3330 nM, a GI50 (SF-539 CNS) of 267 nM and a TGI (SF-539 CNS) of 1150 nM. For the same compound, the GI50 (CCRF-CEM leukemia) was 27 nM, the TGI (CCRF-CEM leukemia) was 2260 nM and the GI50 (NCI-H460 lung) was 84.1 nM. It also gave a TGI (NCI-H460 lung) of 1300 nM, a GI50 (HCT-15 colon) of 1260 nM and a TGI (HCT-15 colon) of 2580 nM. The GI50 (SF-268 CNS) was 404 nM, the TGI (SF-268 CNS) was 2280 nM and the GI50 (RPMI-8226 leukemia) was 688 nM. The TGI (RPMI-8226 leukemia) was 3950 nM, the GI50 (MCF7 breast) was 41.1 nM and the TGI (MCF7 breast) was 1450 nM. It also gave a GI50 (NCI-H226 lung) of 771 nM, a TGI (NCI-H226 lung) of 2620 nM and a GI50 (SK-MEL-5 melanoma) of 966 nM. The TGI (SK-MEL-5 melanoma) was 12800 nM, the GI50 (HOP-92 NSCLC) was 4270 nM and the TGI (HOP-92 NSCLC) was 9630 nM. The GI50 (K-562 leukemia) was 1270 nM, the TGI (K-562 leukemia) was > 100000 nM and the GI50 (CAKI-1 renal) was 344 nM. For the same compound, the TGI (CAKI-1 renal) was 4960 nM, the GI50 (SW-620 colon) was 399 nM and the TGI (SW-620 colon) was 2150 nM. It also gave a GI50 (SNB-75 CNS) of 630 nM, a TGI (SNB-75 CNS) of 5050 nM and a GI50 (HOP-62 NSCLC) of 191 nM. For the same compound, the TGI (HOP-62 NSCLC) was 1680 nM, the GI50 (786-0 renal) was 647 nM and the TGI (786-0 renal) was 1810 nM. The GI50 (UACC-257 melanoma) was 12000 nM, the TGI (UACC-257 melanoma) was 28700 nM and the GI50 (MDA-MB-468 breast) was 318 nM. The TGI (MDA-MB-468 breast) was 1280 nM, the GI50 (SK-OV-3 ovarian) was 520 nM and the TGI (SK-OV-3 ovarian) was 10300 nM. The GI50 (EKVX NSCLC) was 1440 nM, the TGI (EKVX NSCLC) was 2880 nM and the GI50 (SNB-19 CNS) was 408 nM. For the same compound, the TGI (SNB-19 CNS) was 1900 nM, the GI50 (MOLT-4 leukemia) was < 23.3 nM and the TGI (MOLT-4 leukemia) was 4130 nM. The GI50 (HCC-2998 colon) was 1400 nM, the TGI (HCC-2998 colon) was 2690 nM and the GI50 (LOX IMVI melanoma) was 226 nM. For the same compound, the TGI (LOX IMVI melanoma) was 1610 nM, the GI50 (MALME-3M melanoma) was 1370 nM and the TGI (MALME-3M melanoma) was 2830 nM. For the same compound, the GI50 (OVCAR-3 ovarian) was 1350 nM, the TGI (OVCAR-3 ovarian) was 2910 nM and the GI50 (SK-MEL-28 melanoma) was 1650 nM. The TGI (SK-MEL-28 melanoma) was 3150 nM, the GI50 (SN12C renal) was 461 nM and the TGI (SN12C renal) was 1810 nM. The GI50 (OVCAR-5 ovarian) was 1460 nM, the TGI (OVCAR-5 ovarian) was 2800 nM and the GI50 (A498 renal) was 14000 nM. The TGI (A498 renal) was 28300 nM, the GI50 (ACHN renal) was 293 nM and the TGI (ACHN renal) was 1320 nM. For the same compound, the GI50 (MDA-MB-435) was 1220 nM, the TGI (MDA-MB-435) was 2540 nM and the GI50 (KM12 colon) was 1300 nM. For the same compound, the TGI (KM12 colon) was 2910 nM, the GI50 (SK-MEL-2 melanoma) was 16000 nM and the TGI (SK-MEL-2 melanoma) was 34300 nM. For the same compound, the GI50 (NCI/ADR-RES ovarian) was 356 nM, the TGI (NCI/ADR-RES ovarian) was 2210 nM and the GI50 (U251 CNS) was 358 nM. The TGI (U251 CNS) was 2200 nM, the GI50 (HS 578T breast) was 4570 nM and the TGI (HS 578T breast) was 13000 nM. The GI50 (PC-3 prostate) was 1180 nM, the TGI (PC-3 prostate) was 2940 nM and the GI50 (DU-145 prostate) was 223 nM. For the same compound, the TGI (DU-145 prostate) was 1710 nM, the GI50 (NCI-H23 lung) was 207 nM and the TGI (NCI-H23 lung) was 1520 nM. It also gave a GI50 (HT29 colon) of 1070 nM, a TGI (HT29 colon) of 2410 nM and a GI50 (M14 melanoma) of 473 nM. For the same compound, the TGI (M14 melanoma) was 1910 nM, the GI50 (HCT-116 colon) was 451 nM and the TGI (HCT-116 colon) was 2050 nM. For the same compound, the GI50 (SR leukemia) was 214 nM, the TGI (SR leukemia) was > 100000 nM and the GI50 (IGROV1 ovarian) was 1310 nM. It also gave a TGI (IGROV1 ovarian) of 2640 nM, a GI50 (SF-295 CNS) of 91.3 nM and a TGI (SF-295 CNS) of 1470 nM.
